How the values were obtained:
Panc2-H7 model = Panc2-H7 model with or without CD8 neutralizing antibody; assay type: in vivo, C57BL/6J male mice
Description: Based on the findings with bis RvE1 Mg-di-lysinate administered in combination with anti-PD1 in two different tumor models (i.e., Panc2-H7 and LLC), daily (QD) and weekly (Q7D) dosing of bis RvE1 Mg-di-lysinate was investigated in the Panc2-H7 model, with and without an antibody that depletes CD8+ T-cells, which play a major role in the antitumor immune response of immune checkpoint inhibitors. A total of thirty (30) C57BL/6J male mice were injected subcutaneously with 1×10e6 living […]. Once tumors reached 220-240 mm^3 in size based on mean tumor volume per cohort, the mice were randomized (n=6 per group) to treatment with vehicle, bis RvE1 Mg-di-lysinate (300 ug/kg, SC, QD or Q7D), with or without CD8 neutralizing antibody (200 ug IP Q3D). All mice were sacrificed on day 20 when the average tumor size of the placebo group exceeded 2,000 mm^3.

subcutaneous KPC tumors = assay: RNAseq cell enrichment analysis of subcutaneous KPC tumors; assay type: in vivo, mice; settings: Q6D treatment, sacrificed on Day 26, compared to placebo
Description: RNAseq analysis was performed on tumor samples from mice with subcutaneous KPC tumors sacrificed on Day 26 following treatment (Q6D) with bis RvE1 Mg-di-lysinate (Compound 1) compared to placebo. […] Darker color indicates increased gene expression, for various immune cells and other cells, as listed across the top of the heatmap. […] Namely, these unexpected results may be due to durable effects on the tumor microenvironment including changes in immune cell phenotype and the T-cell compartment such as T-cell priming and increased tumor-infiltrating lymphocytes.

For `CC[C@@H](O)/C=C/C=C\C[C@@H](O)/C=C/C=C/C=C\[C@@H](O)CCCC(=O)O` [bis RvE1 Mg-di-lysinate], the “efficacy of weekly (Q7D) relative to daily (QD) dosing” value (Panc2-H7 model; 300 ug/kg SC, mice not receiving the neutralizing antibody) was “comparable and possibly superior efficacy relative to daily (QD) dosing”, the “tumor volume over time” value (Panc2-H7 model; 300 ug/kg, SC, Q7D, without CD8 neutralizing antibody, p<0.01 vs placebo and vs same regimen + CD8 depletion) was “significant inhibition compared to placebo control” and the “immune cell marker gene expression in tumors (RNAseq heatmap)” value (subcutaneous KPC tumors) was “increase in markers of monocytes and DC cell subset (cDCs, pDCs, and iDCs) and markers of NK, CD8+ T cells, Th1 cells, and memory T cells (CD8+ and CD4+)”.

From US11986512B2, “Compositions and methods for cancer therapy” (Thetis Pharmaceuticals LLC, priority 2021, dated 2024)
